Data from patent US9371331B2, “Modulators of methyl modifying enzymes, compositions and uses thereof” (Constellation Pharmaceuticals, Inc., priority 2012, dated 2016).
pIC50: −log10 of the molar value. Where two headings read alike, the source gives them in different places.

Columns and labels:
EZH2 (rPRC2) = EZH2 (rPRC2) (Homo sapiens, UniProt Q15910); assay: EZH2 assay: rPRC2, biotinylated oligonucleosomes, 3H SAM methyl transfer (FlashPlate scintillation); format: biochemical; conditions: biotinylated oligonucleosome substrate
EZH2 (rPRC2), sequence (Q15910 whole entry): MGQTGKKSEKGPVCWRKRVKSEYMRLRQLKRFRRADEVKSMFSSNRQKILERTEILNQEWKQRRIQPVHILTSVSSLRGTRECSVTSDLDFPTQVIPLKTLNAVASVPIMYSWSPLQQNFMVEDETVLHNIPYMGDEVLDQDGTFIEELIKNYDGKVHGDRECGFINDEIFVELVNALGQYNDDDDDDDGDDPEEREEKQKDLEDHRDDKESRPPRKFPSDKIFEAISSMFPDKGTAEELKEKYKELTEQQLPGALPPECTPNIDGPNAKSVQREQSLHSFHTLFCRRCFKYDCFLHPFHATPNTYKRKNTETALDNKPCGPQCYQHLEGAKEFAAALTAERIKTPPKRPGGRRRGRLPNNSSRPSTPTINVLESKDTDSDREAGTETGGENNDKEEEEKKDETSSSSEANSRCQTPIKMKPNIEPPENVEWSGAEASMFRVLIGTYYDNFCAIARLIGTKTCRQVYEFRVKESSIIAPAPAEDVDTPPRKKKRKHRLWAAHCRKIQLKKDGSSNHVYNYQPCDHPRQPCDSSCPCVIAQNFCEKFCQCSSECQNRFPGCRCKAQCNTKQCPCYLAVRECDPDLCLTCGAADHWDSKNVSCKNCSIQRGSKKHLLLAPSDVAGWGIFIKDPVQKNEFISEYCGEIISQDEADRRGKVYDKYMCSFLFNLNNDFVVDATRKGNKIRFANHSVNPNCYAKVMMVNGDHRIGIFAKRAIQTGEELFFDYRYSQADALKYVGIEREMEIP
EZH2 (rPRC2), sequence (O75530 whole entry partner): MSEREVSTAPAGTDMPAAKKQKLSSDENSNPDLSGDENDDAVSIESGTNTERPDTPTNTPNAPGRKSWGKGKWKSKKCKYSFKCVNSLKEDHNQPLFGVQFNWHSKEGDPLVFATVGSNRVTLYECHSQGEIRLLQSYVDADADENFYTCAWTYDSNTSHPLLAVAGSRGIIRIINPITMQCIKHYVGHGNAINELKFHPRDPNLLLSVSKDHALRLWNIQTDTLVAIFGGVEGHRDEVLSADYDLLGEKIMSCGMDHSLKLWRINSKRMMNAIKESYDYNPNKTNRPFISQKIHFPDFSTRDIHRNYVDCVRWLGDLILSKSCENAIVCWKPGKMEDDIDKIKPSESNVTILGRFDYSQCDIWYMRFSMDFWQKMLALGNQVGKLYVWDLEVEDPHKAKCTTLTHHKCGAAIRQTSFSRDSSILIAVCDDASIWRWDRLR
EZH2 (rPRC2), sequence (Q15022 whole entry partner): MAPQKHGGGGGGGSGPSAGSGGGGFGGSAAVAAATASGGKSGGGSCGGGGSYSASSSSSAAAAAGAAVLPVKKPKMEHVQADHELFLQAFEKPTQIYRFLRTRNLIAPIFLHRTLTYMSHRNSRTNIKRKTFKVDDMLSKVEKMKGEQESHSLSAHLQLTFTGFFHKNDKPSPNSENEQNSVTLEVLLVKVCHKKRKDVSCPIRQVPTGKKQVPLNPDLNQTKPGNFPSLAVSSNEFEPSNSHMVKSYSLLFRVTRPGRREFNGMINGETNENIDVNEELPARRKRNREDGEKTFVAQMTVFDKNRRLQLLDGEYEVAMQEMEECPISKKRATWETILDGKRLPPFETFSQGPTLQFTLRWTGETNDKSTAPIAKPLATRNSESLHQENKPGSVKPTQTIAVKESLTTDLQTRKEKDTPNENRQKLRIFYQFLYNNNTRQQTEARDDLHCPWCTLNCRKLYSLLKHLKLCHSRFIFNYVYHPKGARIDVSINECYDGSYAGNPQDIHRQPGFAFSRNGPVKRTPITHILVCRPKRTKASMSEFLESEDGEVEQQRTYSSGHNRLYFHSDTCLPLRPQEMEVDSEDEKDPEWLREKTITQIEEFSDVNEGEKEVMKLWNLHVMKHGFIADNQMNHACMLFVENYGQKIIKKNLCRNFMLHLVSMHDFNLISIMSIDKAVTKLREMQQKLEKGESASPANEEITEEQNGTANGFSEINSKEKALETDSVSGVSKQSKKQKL

Y641N EZH2 = Y641N EZH2 (Homo sapiens, UniProt Q15910, Y641N); assay: Y641N EZH2 assay: as EZH2 assay, with reconstituted H3K27Me2 oligonucleosomes as substrate; format: biochemical
Y641N EZH2, sequence (Q15910 whole entry Y641N): as the sequence (Q15910 whole entry) above, with Y641N counted along it
Y641N EZH2, sequence (O75530 whole entry partner): as the sequence (O75530 whole entry partner) above
Y641N EZH2, sequence (Q15022 whole entry partner): as the sequence (Q15022 whole entry partner) above

[1] = Y641N mutant EZH2, H3K27Me2 oligonucleosome substrate
[2] = EZH2 IC50, wild-type EZH2 (rPRC2)
[3] = Y641N EZH2 IC50, Y641N mutant EZH2, H3K27Me2 oligonucleosome substrate

| SMILES | pIC50 (EZH2 (rPRC2); [2]) | pIC50 (Y641N EZH2; [3]) | further results |
| --- | --- | --- | --- |
| Cc1cc(C)c(CNC(=O)c2c(C3CC3)n(C(C)c3ccccc3)c3ccccc23)c(O)n1 (racemic) [Compound 131, (±)-2-cyclopropyl-N-((2-hydroxy-4,6-dimethylpyridin-3-yl)methyl)-1-(1-phenylethyl)-1H-indole-3-carboxamide] | – | – | EZH2 IC50 (EZH2 (rPRC2); wild-type EZH2 (rPRC2)): *(1.0 μM); Y641N EZH2 IC50 (Y641N EZH2; [1]): *(1.0 μM) |
| Cc1cc(C)c(CNC(=O)c2c(C)n(C(C)c3ccc(S(C)(=O)=O)cc3)c3ccccc23)c(=O)[nH]1 (racemic) [Compound 179, (±)-N-((4,6-dimethyl-2-oxo-1,2-dihydropyridin-3-yl)methyl)-2-methyl-1-(1-(4-(methylsulfonyl)phenyl)ethyl)-1H-indole-3-carboxamide] | > 7.00 | 6.00 to 7.00 | – |
| Cc1cc(C)c(CNC(=O)c2c(C)n(C(C)c3cccc(C(N)=O)c3)c3ccccc23)c(=O)[nH]1 (single isomer, unassigned) [Compound 226, (R or S)-1-(1-(3-carbamoylphenyl)ethyl)-N-((4,6-dimethyl-2-oxo-1,2-dihydropyridin-3-yl)methyl)-2-methyl-1H-indole-3-carboxamide] | 6.00 to 7.00 | 5.00 to 6.00 | – |
| COCC(C)n1c(C)c(C(=O)NCc2c(OC)cc(C)[nH]c2=O)c2cccnc21 (single isomer, unassigned) [Compound 257, (R or S)-N-((4-methoxy-6-methyl-2-oxo-1,2-dihydropyridin-3-yl)methyl)-1-(1-methoxypropan-2-yl)-2-methyl-1H-pyrrolo[2,3-b]pyridine-3-carboxamide] | 6.00 to 7.00 | 5.00 to 6.00 | – |
| COc1cc(C)[nH]c(=O)c1CNC(=O)c1c(C)n(C(C)c2ccn(C)c(=O)c2)c2ncccc12 (single isomer, unassigned) [Compound 269, (R or S)-N-((4-methoxy-6-methyl-2-oxo-1,2-dihydropyridin-3-yl)methyl)-2-methyl-1-(1-(1-methyl-2-oxo-1,2-dihydropyridin-4-yl)ethyl)-1H-pyrrolo[2,3-b]pyridine-3-carboxamide] | 6.00 to 7.00 | 5.00 to 6.00 | – |
| COc1cc(C)[nH]c(=O)c1CNC(=O)c1c(C)n(C(C)C(C)OC)c2ncccc12 (single isomer, unassigned) [Compound 302, N-((4-methoxy-6-methyl-2-oxo-1,2-dihydropyridin-3-yl)methyl)-1-((2R or 2S, 3R or 3S)-3-methoxybutan-2-yl)-2-methyl-1H-pyrrolo[2,3-b]pyridine-3-carboxamide] | 6.00 to 7.00 | 5.00 to 6.00 | – |
| CCCc1cc(C)[nH]c(=O)c1CNC(=O)c1c(C)n(C(C)COC)c2ncccc12 (racemic) [Compound 216, (±)-1-(1-methoxypropan-2-yl)-2-methyl-N-((6-methyl-2-oxo-4-propyl-1,2-dihydropyridin-3-yl)methyl)-1H-pyrrolo[2,3-b]pyridine-3-carboxamide] | 6.00 to 7.00 | 5.00 to 6.00 | – |
| Cc1cc(C)c(COC(=O)c2c(C)n(C3CCOC3)c3ncccc23)c(=O)[nH]1 (racemic) [Compound 202, (±)-(4,6-dimethyl-2-oxo-1,2-dihydropyridin-3-yl)methyl 2-methyl-1-(tetrahydrofuran-3-yl)-1H-pyrrolo[2,3-b]pyridine-3-carboxylate] | 6.00 to 7.00 | 5.00 to 6.00 | – |
| Cc1cc(C)c(CNC(=O)c2c(C)n(C(C)CN3CCOCC3)c3ncccc23)c(=O)[nH]1 (racemic) [Compound 237, (±)-N-((4,6-dimethyl-2-oxo-1,2-dihydropyridin-3-yl)methyl)-2-methyl-1-(1-morpholinopropan-2-yl)-1H-pyrrolo[2,3-b]pyridine-3-carboxamide] | 6.00 to 7.00 | 5.00 to 6.00 | – |
| CCOc1cc(C)[nH]c(=O)c1CNC(=O)c1c(C)n(C(C)COC)c2ncccc12 (racemic) [Compound 235, (±)-N-((4-ethoxy-6-methyl-2-oxo-1,2-dihydropyridin-3-yl)methyl)-1-(1-methoxypropan-2-yl)-2-methyl-1H-pyrrolo[2,3-b]pyridine-3-carboxamide] | 6.00 to 7.00 | 5.00 to 6.00 | – |
| CCOc1cc(C)[nH]c(=O)c1CNC(=O)c1c(C)n(C(C)c2ccccc2)c2cnccc12 (racemic) [Compound 255, (±)-N-((4-ethoxy-6-methyl-2-oxo-1,2-dihydropyridin-3-yl)methyl)-2-methyl-1-(1-phenylethyl)-1H-pyrrolo[2,3-c]pyridine-3-carboxamide] | > 7.00 | 5.00 to 6.00 | – |
| COc1nccc(C(C)n2c(C)c(C(=O)NCc3c(OC)cc(C)[nH]c3=O)c3cccnc32)n1 (racemic) [Compound 232, (±)-N-((4-methoxy-6-methyl-2-oxo-1,2-dihydropyridin-3-yl)methyl)-1-(1-(2-methoxypyrimidin-4-yl)ethyl)-2-methyl-1H-pyrrolo[2,3-b]pyridine-3-carboxamide] | 6.00 to 7.00 | 5.00 to 6.00 | – |
| COc1cc(C)[nH]c(=O)c1CNC(=O)c1c(C)n([C@H](C)[C@H](OC)C2CC2)c2ncccc12 (single isomer, unassigned) [Compound 292, 1-((1R or S, 2R or S)-1-cyclopropyl-1-methoxypropan-2-yl)-N-((4-methoxy-6-methyl-2-oxo-1,2-dihydropyridin-3-yl)methyl)-2-methyl-1H-pyrrolo[2,3-b]pyridine-3-carboxamide] | > 7.00 | 6.00 to 7.00 | – |
| Cc1cc(C)c(CNC(=O)c2c(-c3ccccc3)n(C(C)c3ccccc3)c3ccccc23)c(O)n1 (single isomer, unassigned) [Compound 445, (R or S)-N-((2-hydroxy-4,6-dimethylpyridin-3-yl)methyl)-2-phenyl-1-(1-phenylethyl)-1H-indole-3-carboxamide] | – | – | EZH2 IC50 (EZH2 (rPRC2); wild-type EZH2 (rPRC2)): *(10 uM); Y641N EZH2 IC50 (Y641N EZH2; [1]): *(10 uM) |
| Cc1cc(C)c(CNC(=O)c2c(C)n(C(C)c3ccccc3)c3cccnc23)c(O)n1 (racemic) [Compound 126, N-((2-hydroxy-4,6-dimethylpyridin-3-yl)methyl)-2-methyl-1-(1-phenylethyl)-1H-pyrrolo[3,2-b]pyridine-3-carboxamide] | 6.00 to 7.00 | 5.00 to 6.00 | – |
| Cc1cc(C)c(CNC(=O)c2c(C)n(Cc3cncnc3)c3ccccc23)c(=O)[nH]1 [Compound 149, N-((4,6-dimethyl-2-oxo-1,2-dihydropyridin-3-yl)methyl)-2-methyl-1-(pyrimidin-5-ylmethyl)-1H-indole-3-carboxamide] | 6.00 to 7.00 | 5.00 to 6.00 | – |
| COc1cc(C)[nH]c(=O)c1CNC(=O)c1c(C)n(C(C)C(C)OC)c2ccccc12 (single isomer, unassigned) [Compound 307, Trans-(R or S, R or S)-N-((4-methoxy-6-methyl-2-oxo-1,2-dihydropyridin-3-yl)methyl)-1-(3-methoxybutan-2-yl)-2-methyl-1H-indole-3-carboxamide] | > 7.00 | > 7.00 | – |
| Cc1cc(C)c(CNC(=O)c2cn(S(=O)(=O)c3ccccc3)c3ccccc23)c(=O)[nH]1 [Compound 135, N-((4,6-dimethyl-2-oxo-1,2-dihydropyridin-3-yl)methyl)-1-(phenylsulfonyl)-1H-indole-3-carboxamide] | – | – | pIC50 (EZH2 (rPRC2); wild-type EZH2 (rPRC2), read-out: EZH2 IC50): 5.00 to 6.00; pIC50 (Y641N EZH2; Y641N mutant EZH2, H3K27Me2 oligonucleosome substrate, read-out: Y641N EZH2 IC50): < 5.00 |
| COCC(C)n1c(C)c(C(=O)NCc2c(OC)cc(C)[nH]c2=O)c2ccccc21 (single isomer, unassigned) [Compound 223, N-((4-methoxy-6-methyl-2-oxo-1,2-dihydropyridin-3-yl)methyl)-1-(1-methoxypropan-2-yl)-2-methyl-1H-indole-3-carboxamide] | > 7.00 | 6.00 to 7.00 | – |
